Experimental findings from the supplement of paper PMC10331698 are described below.

± gives the standard deviation of the averaged measurements.

Holding throughout (assay): level (log10 ratio to DMSO vehicle control); higher = higher biomarker level / cell amount than vehicle control
What all share (conditions): in DMSO

Compound in test [1]: O=S(=O)(O)C(F)(F)C(F)(F)C(F)(F)C(F)(F)C(F)(F)C(F)(F)C(F)(F)C(F)(F)C(F)(F)C(F)(F)F [Sodium perfluorodecanesulfonate]
The method, then:
(§1)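 BioMAP Diversity Plus panel of 12 human primary cell co-culture systems (3C, 4H, LPS, SAg, BT, BF4T, BE3C, CASM3C, HDF3CGF, KF3CT, MyoF, Mphg). Compounds were added 1 h before stimulation and left for 24 h (MyoF 48 h; BT 72 h for soluble read-outs or 6 d for IgG). Biomarkers were read by ELISA, cytotoxicity by SRB, PBMC viability and proliferation by Alamar Blue. Each well value was divided by the mean of 8 DMSO control wells on the same plate and log10 transformed; duplicate blinded samples were tested at 4 concentrations.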

Compound in test [2]: O=S(=O)(O)CCC(F)(F)C(F)(F)C(F)(F)C(F)(F)C(F)(F)C(F)(F)F [6:2 Fluorotelomer sulfonic acid]
The method, then:
as §1

Compound in test [3]: NC(=O)C(F)(F)C(F)(F)C(F)(F)C(F)(F)F [Nonafluoropentanamide]
The method, then: as §1

Compound in test [4]: FC(F)(F)C(F)(F)CNCC(F)(F)C(F)(F)F [Bis(1H,1H-perfluoropropyl)amine]
The method, then:
as §1

Compound in test [5]: FC(F)(F)C(F)(F)C(F)(F)C(F)(F)C(F)(F)C(F)(F)C(F)(F)I [1-Iodopentadecafluoroheptane]
The method, then: as §1

Compound in test [6]: COC(=O)C(F)(F)C(F)(F)OC(F)(C(F)(F)F)C(F)(F)OC(F)=C(F)F [Methyl perfluoro(3-(1-ethenyloxypropan-2-yloxy)propanoate)]
Here is the method: as §1

Regarding SAg:SRB, the “level (log10)” value in test [1] (1500 nM) is -0.002 ± 0.0057; in test [1] (4400 nM) it was -0.0015 ± 0.00071; in test [1] (13000 nM), -0.016 ± 0.0014; in test [1] (40000 nM) it was -0.078 ± 0.0042; in test [2] (6700 nM), -0.012 ± 0.0057; in test [2] (20000 nM), -0.0045 ± 0.0021. Further, the “level (log10)” value is -0.0045 ± 0.021 in test [2] (60000 nM); -0.0025 ± 0.00071 in test [3] (6700 nM); -0.0055 ± 0.00071 in test [3] (20000 nM); -0.0045 ± 0.0078 in test [3] (60000 nM); -0.012 ± 0.0028 in test [4] (6700 nM); -0.001 ± 0.017 in test [4] (20000 nM). For the same test system, the “level (log10)” value in test [4] (60000 nM) was 0.0035 ± 0.0035; in test [5] (6700 nM), -0.007 ± 0.0042; in test [5] (20000 nM), 0.0025 ± 0.0021; in test [6] (6700 nM), 0.0035 ± 0.015; in test [6] (20000 nM), 0.006 ± 0.0057.
